Here are results for 5 compounds from patent US9321796B2, “Galactopyranosyl derivatives useful as medicaments” (Universiteit Gent, priority 2012, dated 2016).

The test system of test [1] is collagen-induced arthritis (CIA) and experimental auto-immune encephalomyelitis (EAE). The note with it: CIA and EAE in mice; cited from earlier work.
The subject of another test is B16 melanoma cells. In words: B16 melanoma lung metastasis model with glycolipid-loaded BMDC. Format: in vivo, mice. The settings on record: 10,000 glycolipid pulsed BMDC. As to the method: (§1) The murine iNKT hybridoma N38-2C12 (Vα14Vβ8.1/8.2b) was provided by Brown University, Providence, Rhode Island, USA). Cells were cultured in DMEM Sigma) supplemented with 10% fetal calf serum (Invitrogen), 1% glutamine (Sigma), 1% penicillin streptomycin (Sigma), and 2-mercapto-ethanol (Sigma) (hereinafter called cDMEM). B16 melanoma cells were cultured in advanced RPMI (Sigma) supplemented with 10% fetal calf serum (Invitrogen), 1% glutamine (Sigma) and 1% penicillin streptomycin (Sigma). They were harvested using cell dissociation buffer, which was washed away twice first using the medium and second with PBS. 400,000 cells were intravenously (IV) injected within 30 minutes after harvest into the tail vein.
In order to determine if the new glycolipids can also mimic the anti-metastatic activity of NU-α-GalCer, we examined them in the B16 lung melanoma model. […] As little as 10,000 pulsed BMDC were enough to exert this marked tumor response. To analyze if these anti-tumor results still correspond to strong cytokine responses mice were bled 16 hours after injection of 10,000 pulsed bone marrow dendritic cells. […] Strikingly, the IL-12 results were not different between the 2 doses in contrast to the IFN-γ production, which was more dose-dependent (FIG. 9). […]

Test [2] concerns iNKT cells. The test is described as follows: In vivo cytokine secretion after intravenous injection of glycolipid-pulsed BMDC. Also noted: species or system C57BL/6 mice. As to the method: (§2) For in vivo activation of iNKT cells C57BL/6 mice were either intraperitoneally injected with 5 μg glycolipid (dissolved in PBS) or intravenously with 6·10^5 or 1·10^4 glycolipid pulsed BMDCs.
(§3) Next we examined if the glycolipid pulsed BMDC behave similarly in vivo. For cytokine analysis we bled the mice at several time points after injection. We focused on IFN-γ and IL-12 secretion.
In order to determine if the new glycolipids can also mimic the anti-metastatic activity of NU-α-GalCer, we examined them in the B16 lung melanoma model. […] As little as 10,000 pulsed BMDC were enough to exert this marked tumor response. To analyze if these anti-tumor results still correspond to strong cytokine responses mice were bled 16 hours after injection of 10,000 pulsed bone marrow dendritic cells. […] Strikingly, the IL-12 results were not different between the 2 doses in contrast to the IFN-γ production, which was more dose-dependent (FIG. 9). This might indicate that other cytokines such as IL-18, which is also necessary for the induction of IFN-γ by NK cells might play an additional role in iNKT cell dependent Th1 polarization.

The test system of test [3] is spleen DCs (CD11c CD11b double positive). In words: Co-stimulatory molecule expression on spleen dendritic cells after glycolipid-pulsed BMDC. The note with it: 600000 glycolipid-pulsed BMDC. Format: in vivo, C57/BL6 mice. An excerpt: Spleen cells were isolated. Lymphocytes were isolated at the interface and washed, depleted with an anti-CD3 kit (Miltenyi Biotec, Sunnyvale, […]) and re-suspended in a staining buffer containing saturating amount of anti-Fcy Receptor type II/type III monoclonal antibodies (Miltenyi). Hereafter cells were stained with fluorochrome-conjugated mAbs (all from Bioscience) directed against the described antigens. Live cells (exclusion with DAPI) were acquired on a FACSCanto (BD) flow cytometer and analyzed using FlowJo (Tree Star) software.
Expression of co-stimulatory markers at the cell surface is linked to cytokine polarization because this determines the degree of activation of by-stander cells such as NK cells, whose IFN-y production is responsible for Th1 polarized cytokine profile. For α-C-GalCer, it has been shown that expression of CD40 is essential for IL-12 and subsequent NK cell dependent IFN-γ production. In contrast, OCH, a Th2 polarizing antigen, is not able to induce CD40 expression at the surface of DCs. Additionally OX40L up-regulation by dendritic cells (DC) has been found important for α-GalCer dependent tumour killing.
Glycolipid stimulation of iNKT cells leads to CD28 expression, and induces CD80 and CD86 expression at the dendritic cell surface, which is required for induction of IL-12 by dendritic cells. […]

The test system of test [4] is iNKT cells. The test is described as follows: In vivo activation of iNKT cells: serum cytokines after intraperitoneal glycolipid injection. Also noted: species or system C57BL/6 mice. The settings on record: 16 hours after intraperitoneal injection of 5 μg glycolipid. As to the method:
Glycolipids from this invention were synthesized according to the procedure of example 1. α-C-GalCer was kindly provided by Aaron Diamond AIDS Research Center (New York, USA) and the NIH Tetramer Core Facility. Lyophilized glycolipids were dissolved in pure dimethylsulfoxide (DMSO) (Sigma) at a 10 mg/mL concentration and stored at −20° C. Glycolipids were solubilized by adding phosphate buffer saline (PBS) (Invitrogen) or a standard vehicle (96 mg/mL sucrose, 10 mg/mL sodium deoxycholate, 0,05% Tween 20), warming to 80° C. for 20 minutes, and then sonication for 10 minutes.
as §2
In order to assess the antigenicity of the carbamate-containing galactopyranosyl compounds of example 1 and their ability to induce Th1-skewing, mice were bled at 16 hours after intraperitoneal glycolipid exposure because this is known to afford peak levels of IFN-y, the hallmark Th1 cytokine. […] IFN-y production in response to glycolipid dependent iNKT cell activation is known to be dependent on IL-12^10-12, which was therefore analyzed.

For another test, the system named is human iNKT cells. In words: Cytokine secretion in cultures of purified human iNKT cells. In kind it is cell-based. The settings on record: glycolipid 100 ng/ml pulsed PBMCs, 24 hours. As to the method: Human iNKT cells from healthy adult individuals were sorted and expanded. PBMCs were isolated by means of density centrifugation, incubated overnight in the presence of indicated glycolipids (100 ng/ml), washed and irradiated (40 Gy). Subsequently, 5×10^4 iNKT cells were stimulated with 10^5 glycolipid pulsed autologous PBMCs in RPMI 1640 media supplemented with 10% human AB serum (Lonza), 1% sodium pyruvate, 1% nonessential amino acids and 1% penicillin/streptomycin (all from Invitrogen). Supernatants were collected after 24 hours of culture and cytokine levels were determined by means of cytometric Bead Arrays (CBA) following the manufacturer's instructions (BD).
as §3

In test [5] the target is T1, TCR / mCD1d-glycolipid complex (Mus musculus, UniProt P11609).
T1 sequence (P11609 19-297): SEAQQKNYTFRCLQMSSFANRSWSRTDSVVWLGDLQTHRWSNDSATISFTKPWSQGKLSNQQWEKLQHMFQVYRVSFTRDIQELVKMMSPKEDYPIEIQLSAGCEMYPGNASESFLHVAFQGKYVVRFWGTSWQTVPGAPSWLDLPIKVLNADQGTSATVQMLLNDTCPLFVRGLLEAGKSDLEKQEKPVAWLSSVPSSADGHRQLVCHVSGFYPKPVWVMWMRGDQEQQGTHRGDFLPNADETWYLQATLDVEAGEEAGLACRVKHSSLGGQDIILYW
T1 sequence (P01887 21-119 partner): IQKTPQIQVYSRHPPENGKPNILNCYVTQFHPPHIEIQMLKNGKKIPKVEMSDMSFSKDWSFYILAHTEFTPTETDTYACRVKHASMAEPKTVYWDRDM
In words: Surface plasmon resonance: TCR binding to mCD1d-glycolipid complexes. The settings on record: SPR, 25° C., Langmuir 1:1 model; read-out: KD. As to the method: SPR studies were conducted using a Biacore 3000 (Biacore). Glycolipids were dissolved at 1 mg/ml in DMSO and before loading were diluted to 0.25 mg/ml with vehicle solution (50 mM Tris-HCl pH 7.0, 4.8 mg/ml sucrose, 0.5 mg/ml deoxycholate and 0.022% Tween-20), heated for 20 minutes at 80° C. After cooling 1 μg of each lipid was incubated with 10 μg enzymatically biotinylated mCD1d overnight at room temperature. In one embodiment, 400-600 response units (RU) of mCD1d-glycolipid complexes were immobilized onto a CA capture chip (Biacore). A reference surface was generated in another flow channel with unloaded mCD1d immobilized at RU of 500. During the association phase, a series of increasing concentrations of TCR (in 10 mM HEPES, 150 mM NaCl, 3.0 mM EDTA, pH 7.4) in duplicate were injected for 80 seconds and the dissociation phase (running buffer only) was monitored over 45 minutes. Experiments were carried out at 25° C. with a flow rate of 30 μl/min and performed at least two to three times, each time with a different batch of TCR preparation. Kinetic parameters were calculated after subtracting the response to mCD1d molecules in the reference channel, using a simple Langmuir 1:1 model in the BIA evaluation software version 4.1. One representative sensorgram for each lipid is shown. […]
In general terms: Surface plasmon resonance follows binding to a sensor surface in real time, without labels.

Test [6] concerns murine iNKT hybridoma N38-2C12. In words: Co-culture of glycolipid-pulsed BMDC with iNKT cell hybridoma 2C12, IL-2 by ELISA. The settings on record: BMDC loaded 20 hours with 100 ng/mL glycolipid, 16 hours co-culture with 2C12 cells. Format: cell-based. As to the method: as §1
For in vitro stimulation, murine iNKT hybridoma cells at 5·10^4 cells/well in 96-well plates were stimulated with the 10^5 cells/well glycolipid pulsed BMDCs in cDMEM for 4, 16 or 24 hours at […], and levels of murine IL-2 secretion were determined by ELISA.
iNKT cell polarization is a matter of debate and it has been shown uptake by different cells can also affect the outcome. To avoid these host dependent parameters we set up a simple in vitro model, which consists of co-cultures of glycolipid-pulsed bone marrow dendritic cells and an iNKT cell hybridoma (i.c. 2C12 containing a Vβ8.2 TCR). IL-2 production is used as a read-out for TCR affinity for the whole CD1d-glycolipid complex. […] To confirm this we also measured intracellular IL-2 production in 2C12 cells already 4 hours after coculture, where a similar result was obtained (FIG. 2). Because IL-2 production is a downstream event of TCR signaling we analyzed TCRβ expression.
In order to assess the antigenic activity of the triazolyl-containing galactopyranosyl compounds of example 10, bone marrow dendritic cells (BMDC) were loaded during 20 hours with 100 ng/mL glycolipid. After 16 hours of co-culture with 2C12 cells (iNKT cell hybridoma), IL-2 secretion was determined by ELISA.

[7] abbreviates: 16 hours after injection of 10,000 pulsed BMDC.

`CCCCCCCCCCCCCCCCCCCCCCCC(=O)N[C@@H](COC1OC(CO)C(O)C(O)C1O)[C@H](O)[C@H](O)CCCCC` (some centres unmarked) [OCH]: in test [1], the “effect on Th1-mediated auto-immune diseases” value is reported as “protective effect”.
What is called Kd is the equilibrium constant for the complex coming apart. As for `CCCCCCCCCCCCCCCCCCCCCCCCCC(=O)NC(COC1OC(COC(=O)Nc2ccncc2)C(O)C(O)C1O)C(O)C(O)CCCCCCCCCCCCCC` [PyrC-α-GalCer, (2S,3S,4R)-1-O-(6-O-(4pyridinylcarbamoyl)-α-D-galactopyranosyl)-2-hexa-cosylamino-octadecane-1,3,4-triol], the “prevention of tumor metastasis (lung nodules)” value with B16 melanoma cells was “still better in preventing tumor metastasis”. Moreover, in the test with iNKT cells [2] (setting [7]), the IFN-γ production entry is given as “significantly higher” and the IL-12 production result was “significantly higher”. In the test with iNKT cells [2] (24 hours after injection of glycolipid pulsed BMDC), the “IL-12 secretion after 24 hours” value was “markedly higher than for NU-α-GalCer”. For the same compound, the IL-12 secretion entry in the test with iNKT cells [2] (after injection of glycolipid pulsed BMDC) is “very high”. In the test on iNKT cells [2] (several time points after injection of glycolipid pulsed BMDC), the “IFN-γ level time course” value is reported as “increased up to 24 hours after injection”. Further, the “CD40 up-regulation on spleen DCs” value in test [3] is “induces early CD40 up-regulation”. The IL-12 production entry with iNKT cells [4] is recorded as “significantly higher IL-12 levels than NU-α-GalCer”. The “Th1-biased cytokine secretion (more IFN-γ and IL-12 and less IL-4 and IL-13 compared to α-GalCer)” value in the test with human iNKT cells is listed as “able to induce Th1-biased cytokine secretion”. Besides, the Kd in test [5] came to 33 nM.
With “(2S,3S,4R)-1-O-(6-deoxy-6-(4-butyltriazol-1-yl)-α-D-galactopyranosyl)-2-hexacosylamino-octadecane-1,3,4-triol [Compound 44]”, the IL-2 secretion entry in test [6] is reported as “tend to induce the highest IL-2 secretion”.
For “(2S,3S,4R)-1-O-(6-deoxy-6-(4-phenyltriazol-1-yl)-α-D-galactopyranosyl)-2-hexacosylamino-octadecane-1,3,4-triol [Compound 45]”, in test [6], the IL-2 secretion result is on record as “tend to induce the highest IL-2 secretion”.
As to “(2S,3S,4R)-1-O-(6-deoxy-6-(triazol-1-yl)-α-D-galactopyranosyl)-2-hexacosylamino-octadecane-1,3,4-triol [non-substituted triazolyl compound]”, the IL-2 secretion entry in test [6] was “even better in stimulating iNKT cells to release IL-2”.
